# Measured values taken from PMC8126888 (RSC Medicinal Chemistry, 2020).
# Read-outs that look alike come from different tables or passages of the source.
# What was measured:
# [1] = in vitro; details: human
# [2] = test system: Trypanosoma cruzi, Tulahuen CL2, beta-galactosidase strain; assay: microbe, parasite or virus in culture
# [3] = in vitro; details: human, microsomes, human liver microsomes
# [4] = in vitro; details: PAMPA
# [5] = test system: Leishmania infantum MHOM/MA(BE)/67/ITMAP263 intracellular amastigotes; assay: microbe, parasite or virus in culture; details: Macrophage, in Mus musculus
# [6] = test system: primary peritoneal mouse macrophages (PMM); assay: cells; details: Macrophage
# [7] = physchem; details: HPLC, Ascentis Express RP Amide column, pH 7.4, eLogD, experimental
# [8] = in vitro; details: human, HFF-1 cells
# [9] = in vitro; details: human, HepG2 cells
# [10] = in vitro; details: mouse, microsomes, pH 7.4, MLM CLint (uL/min/mg), mouse liver microsomes
# [11] = in vitro; details: PAMPA; remark: listed apart in the source
# [12] = MRC5, read-out: T. cruzi Tulahuen C4 (LacZ) IC50
# [13] = read-out: L. Inf. pIC50, from L. infantum intracellular amastigote IC50 (converted)
# [14] = read-out: L. infantum MHOM/MA(BE)/67/ITMAP263 intracellular amastigotes IC50, intracellular amastigotes
# [15] = MRC5, read-out: T. cruzi Tulahuen C4 (LacZ) IC50 (uM)
# [16] = read-out: L. infantum MHOM/MA(BE)/67/ITMAP263 intracellular amastigotes IC50 (uM), intracellular amastigotes
SMILES,CC50 at 3 days [1] [µM],"IC50 [2, 12] [µM]","microsomal CLint at 0.5 μM ([3]; pH 7.4, HLM CLint) [µL/min/mg]",Papp [4] [×10⁻⁶ cm/s],"IC50 [5, 13] [µM]","IC50 [5, 14] [µM]",IC50 ([6]; read-out: PMM IC50) [µM],chromatographic logD [7],CC50 [8] [µM],"IC50 [2, 15] [µM]",CC50 [9] [µM],"microsomal CLint at 0.5 μM ([3]; pH 7.4, HLM CLint (uL/min/mg)) [µL/min/mg]","IC50 [5, 16] [µM]",microsomal CLint at 0.5 μM [10] [µL/min/mg],Papp [11] [×10⁻⁶ cm/s],IC50 ([6]; read-out: PMM IC50 (uM)) [µM]
COc1ccc(C#N)cc1S(=O)(=O)N(Cc1ccccc1)Cc1ccccc1 [DNDI0003366138],40.4,8.16,304,3.93,0.437,0.44,> 64,–,–,–,–,–,–,–,–,–
CN(C)CCN(Cc1ccccc1)S(=O)(=O)c1ccccc1S(C)(=O)=O [DNDI0003367255],> 64,> 64,–,2.04,> 64,> 64,> 64,2.6,–,–,–,–,–,–,–,–
COc1ccc(C(=O)O)cc1S(=O)(=O)N(Cc1ccccc1)Cc1ccccc1 [DNDI0003368287],> 64,> 64,< 23,17.8,57.5,57,> 64,–,–,–,–,–,–,–,–,–
COc1ccc(OC)c(S(=O)(=O)N(Cc2ccc(F)cc2)Cc2nc(C)no2)c1 [DNDI0003368295],> 64,30,350,8.92,7.76,7.75,> 64,–,–,–,–,–,–,–,–,–
COc1ccc(C(=O)N2CCOCC2)cc1S(=O)(=O)N(Cc1ccccc1)Cc1ccccc1 [DNDI0003368296],> 64,> 64,810,6.19,0.457,0.46,45.2,–,–,–,–,–,–,–,–,–
COc1ncccc1S(=O)(=O)N(Cc1ccccc1)Cc1ccccc1 [DNDI0003368299],3.81,6.34,849,2.05,0.646,0.64,> 64,–,–,–,–,–,–,–,–,–
COCCN(Cc1ccc(F)cc1)S(=O)(=O)c1cc(C#N)ccc1OC [DNDI0003368395],> 64,> 64,< 23,15.3,8.91,8.88,> 64,–,–,–,–,–,–,–,–,–
CN(C)c1ncccc1S(=O)(=O)N(Cc1ccc(F)cc1)Cc1ccc(F)cc1 [DNDI0003389117],42.7,–,–,–,6.03,–,–,4.6,16.7,12.6,56.7,728,5.99,903,1.18,> 64
COc1ccc(N2CCOCC2)cc1S(=O)(=O)N(Cc1ccc(F)cc1)Cc1ccc(F)cc1 [DNDI0003389118],> 64,–,–,–,0.324,–,–,4.3,15.2,7.91,> 64,82,0.32,488,2.55,> 64
O=S(=O)(c1cccnc1N1CCOCC1)N(Cc1ccc(F)cc1)Cc1ccc(F)cc1 [DNDI0003389119],> 64,–,–,–,2.82,–,–,4.5,29.4,15.1,> 64,823,2.83,738,3.63,> 64
N#Cc1ccc(O)c(S(=O)(=O)N(Cc2ccc(F)cc2)Cc2ccc(F)cc2)c1 [DNDI0003389125],4,–,–,–,30.9,–,–,3.5,7.8,16.8,> 64,33,30.7,366,13.2,45.2
COc1ccc(C(=O)N2CCOCC2)cc1S(=O)(=O)N(C)Cc1ccc(F)cc1 [DNDI0003389126],> 64,–,–,–,57.5,–,–,2.7,> 64,41.4,> 64,70,57,94,16.6,> 64
COc1ccc(C(=O)N2CCOCC2)cc1S(=O)(=O)N(Cc1ccc(F)cc1)Cc1ccccc1Cl [DNDI0003389128],36.8,–,–,–,1.41,–,–,4.1,10.5,9.66,> 64,351,1.4,1660,9,> 64
COc1ccc(Cl)cc1S(=O)(=O)N(Cc1ccccc1)CC(O)c1ccc(F)cc1 (centres unmarked) [DNDI0003389316],23.5,–,–,–,12,–,–,3.1,4.75,17.8,51.5,298,12,147,4,> 64
COc1ccccc1S(=O)(=O)N(Cc1ccccc1)CC(O)c1ccc(F)cc1 (centres unmarked) [DNDI0003389317],40.7,–,–,–,11.5,–,–,4.1,10.5,26.6,> 64,610,11.6,1240,11.8,> 64
CNCCOc1ccc(F)cc1S(=O)(=O)N(Cc1ccc(F)cc1)Cc1ccc(F)cc1 [DNDI0003389318],4.22,–,–,–,2.4,–,–,5.3,7.25,5.11,6.84,46,2.38,84,0.43,8
CS(=O)(=O)c1ccccc1S(=O)(=O)N(Cc1ccccc1)Cc1ccccc1 [DNDI0003389642],> 64,–,–,–,32.4,–,–,4.1,38.1,24.3,> 64,248,32,502,6.25,> 64
COc1ccc(S(=O)(=O)N2CCOCC2)cc1C(=O)N(Cc1ccc(F)cc1)Cc1ccc(F)cc1 [DNDI0003389643],> 64,–,–,–,17,–,–,3.9,> 64,16.6,> 64,717,16.9,610,4.14,> 64
COc1ccc(N2CCN(C)CC2)cc1S(=O)(=O)N(Cc1ccc(F)cc1)Cc1ccc(F)cc1 [DNDI0003389645],28.7,–,–,–,0.398,–,–,4.4,8.45,2.8,26.8,152,0.4,212,0.71,8
O=S(=O)(c1ccccn1)N(Cc1ccccc1)Cc1ccccc1 [DNDI0003389646],> 64,–,–,–,16.2,–,–,4,33.8,27.7,> 64,218,16.1,449,9.55,> 64
O=S(=O)(c1cc(N2CCOCC2)ccc1OC(F)F)N(Cc1ccc(F)cc1)Cc1ccc(F)cc1 [DNDI0003389647],> 64,–,–,–,0.501,–,–,4.8,37.6,5.62,> 64,153,0.5,462,0.12,45.2
COc1ccc(CN(Cc2ccc(F)cc2)S(=O)(=O)c2cc(F)ccc2OCC[N+](C)(C)CC(=O)O)cc1 [DNDI0003389931],> 64,–,–,–,> 64,–,–,3.8,61.1,13.1,> 64,14,> 64,17,0.36,> 64
COc1ccc(Cl)cc1S(=O)(=O)N(Cc1ccccc1)CC(N)c1ccc(F)cc1 (centres unmarked) [DNDI0003389932],14,–,–,–,6.46,–,–,4.3,> 64,4.64,19.5,34,6.39,239,0.59,32
COc1ccc(Cl)cc1S(=O)(=O)N(Cc1ccccc1)C(CO)CO [DNDI0003389933],> 64,–,–,–,57.5,–,–,3.2,> 64,14.3,> 64,109,57,253,13.2,> 64
